Source: the NIST ThermoML archive (doi:10.1021/je800747v)

Assay: xn = mol fraction of the nth substance listed
Settings: 101 kPa, Liquid, Optical method

For `COCCOC` [1,2-dimethoxyethane] + CCCCCCC, the binary diffusion coefficient (276.64 K, x1 = 0) was 5.24e-09 m2/s, the binary diffusion coefficient (277.73 K, x1 = 0) was 5.28e-09 m2/s and the binary diffusion coefficient (281.59 K, x1 = 0) was 5.31e-09 m2/s. For the same compound, the binary diffusion coefficient (284.32 K, x1 = 0) was 5.35e-09 m2/s, the binary diffusion coefficient (287.28 K, x1 = 0) was 5.4e-09 m2/s and the binary diffusion coefficient (289.59 K, x1 = 0) was 5.44e-09 m2/s. The binary diffusion coefficient (292.83 K, x1 = 0) was 5.51e-09 m2/s, the binary diffusion coefficient (294.95 K, x1 = 0) was 5.57e-09 m2/s and the binary diffusion coefficient (296.37 K, x1 = 0) was 5.63e-09 m2/s. For the same compound, the binary diffusion coefficient (298.46 K, x1 = 0) was 5.69e-09 m2/s, the binary diffusion coefficient (301.29 K, x1 = 0) was 5.79e-09 m2/s and the binary diffusion coefficient (304.98 K, x1 = 0) was 5.89e-09 m2/s. It also gave a binary diffusion coefficient (306.86 K, x1 = 0) of 5.98e-09 m2/s, a binary diffusion coefficient (310.67 K, x1 = 0) of 6.13e-09 m2/s and a binary diffusion coefficient (312.41 K, x1 = 0) of 6.3e-09 m2/s. It also gave a binary diffusion coefficient (316.09 K, x1 = 0) of 6.48e-09 m2/s, a binary diffusion coefficient (319.27 K, x1 = 0) of 6.62e-09 m2/s and a binary diffusion coefficient (322.81 K, x1 = 0) of 6.79e-09 m2/s. For the same compound, the binary diffusion coefficient (325.36 K, x1 = 0) was 6.94e-09 m2/s, the binary diffusion coefficient (328.78 K, x1 = 0) was 7.3e-09 m2/s and the binary diffusion coefficient (332.63 K, x1 = 0) was 7.59e-09 m2/s.
With `COCCOCCOC` [2,5,8-trioxanonane] + CCCCCCC the binary diffusion coefficient (276.64 K, x1 = 0) was 9.42e-10 m2/s, the binary diffusion coefficient (277.73 K, x1 = 0) was 9.48e-10 m2/s and the binary diffusion coefficient (281.59 K, x1 = 0) was 9.51e-10 m2/s. It also gave a binary diffusion coefficient (284.32 K, x1 = 0) of 9.58e-10 m2/s, a binary diffusion coefficient (287.28 K, x1 = 0) of 9.76e-10 m2/s and a binary diffusion coefficient (289.59 K, x1 = 0) of 9.87e-10 m2/s. The binary diffusion coefficient (292.83 K, x1 = 0) was 1e-09 m2/s, the binary diffusion coefficient (294.95 K, x1 = 0) was 1.02e-09 m2/s and the binary diffusion coefficient (296.37 K, x1 = 0) was 1.05e-09 m2/s. For the same compound, the binary diffusion coefficient (298.46 K, x1 = 0) was 1.07e-09 m2/s, the binary diffusion coefficient (301.29 K, x1 = 0) was 1.08e-09 m2/s and the binary diffusion coefficient (304.98 K, x1 = 0) was 1.12e-09 m2/s. It also gave a binary diffusion coefficient (306.86 K, x1 = 0) of 1.14e-09 m2/s, a binary diffusion coefficient (310.67 K, x1 = 0) of 1.18e-09 m2/s and a binary diffusion coefficient (312.41 K, x1 = 0) of 1.23e-09 m2/s. It also gave a binary diffusion coefficient (316.09 K, x1 = 0) of 1.26e-09 m2/s, a binary diffusion coefficient (319.27 K, x1 = 0) of 1.31e-09 m2/s and a binary diffusion coefficient (322.81 K, x1 = 0) of 1.37e-09 m2/s. The binary diffusion coefficient (325.36 K, x1 = 0) was 1.43e-09 m2/s, the binary diffusion coefficient (328.78 K, x1 = 0) was 1.48e-09 m2/s and the binary diffusion coefficient (332.63 K, x1 = 0) was 1.53e-09 m2/s.
For `CCCCCCC` [heptane] + CCO, the binary diffusion coefficient (276.64 K, x2 = 0) was 7.57e-09 m2/s, the binary diffusion coefficient (277.73 K, x2 = 0) was 7.61e-09 m2/s and the binary diffusion coefficient (281.59 K, x2 = 0) was 7.64e-09 m2/s. The binary diffusion coefficient (284.32 K, x2 = 0) was 7.7e-09 m2/s, the binary diffusion coefficient (287.28 K, x2 = 0) was 7.75e-09 m2/s and the binary diffusion coefficient (289.59 K, x2 = 0) was 7.79e-09 m2/s. It also gave a binary diffusion coefficient (292.83 K, x2 = 0) of 7.84e-09 m2/s, a binary diffusion coefficient (294.95 K, x2 = 0) of 7.9e-09 m2/s and a binary diffusion coefficient (296.37 K, x2 = 0) of 7.94e-09 m2/s. The binary diffusion coefficient (298.46 K, x2 = 0) was 8.07e-09 m2/s, the binary diffusion coefficient (301.29 K, x2 = 0) was 8.19e-09 m2/s and the binary diffusion coefficient (304.98 K, x2 = 0) was 8.22e-09 m2/s. For the same compound, the binary diffusion coefficient (306.86 K, x2 = 0) was 8.37e-09 m2/s, the binary diffusion coefficient (310.67 K, x2 = 0) was 8.47e-09 m2/s and the binary diffusion coefficient (312.41 K, x2 = 0) was 8.58e-09 m2/s. For the same compound, the binary diffusion coefficient (316.09 K, x2 = 0) was 8.71e-09 m2/s, the binary diffusion coefficient (319.27 K, x2 = 0) was 8.91e-09 m2/s and the binary diffusion coefficient (322.81 K, x2 = 0) was 9.17e-09 m2/s. The binary diffusion coefficient (325.36 K, x2 = 0) was 9.22e-09 m2/s, the binary diffusion coefficient (328.78 K, x2 = 0) was 9.36e-09 m2/s and the binary diffusion coefficient (332.63 K, x2 = 0) was 9.5e-09 m2/s.
Compound `[Cl-].[K+]` [potassium chloride] + O has a binary diffusion coefficient (298.15 K, x1 = 0) of 1.86e-09 m2/s.
